Consider 47 compounds from publication PMC8565778, “Evaluation of health benefits of sea lamprey (Petromyzon marinus) isolates using in vitro antiinflammatory and antioxidant assays” (PLoS ONE, 2021).

The target in assay [1] is T1, COX-1 (cyclooxygenase enzyme-1) (Ovis aries, UniProt P05979).
T1 construct: gene PTGS1
T1 sequence (P05979 25-600): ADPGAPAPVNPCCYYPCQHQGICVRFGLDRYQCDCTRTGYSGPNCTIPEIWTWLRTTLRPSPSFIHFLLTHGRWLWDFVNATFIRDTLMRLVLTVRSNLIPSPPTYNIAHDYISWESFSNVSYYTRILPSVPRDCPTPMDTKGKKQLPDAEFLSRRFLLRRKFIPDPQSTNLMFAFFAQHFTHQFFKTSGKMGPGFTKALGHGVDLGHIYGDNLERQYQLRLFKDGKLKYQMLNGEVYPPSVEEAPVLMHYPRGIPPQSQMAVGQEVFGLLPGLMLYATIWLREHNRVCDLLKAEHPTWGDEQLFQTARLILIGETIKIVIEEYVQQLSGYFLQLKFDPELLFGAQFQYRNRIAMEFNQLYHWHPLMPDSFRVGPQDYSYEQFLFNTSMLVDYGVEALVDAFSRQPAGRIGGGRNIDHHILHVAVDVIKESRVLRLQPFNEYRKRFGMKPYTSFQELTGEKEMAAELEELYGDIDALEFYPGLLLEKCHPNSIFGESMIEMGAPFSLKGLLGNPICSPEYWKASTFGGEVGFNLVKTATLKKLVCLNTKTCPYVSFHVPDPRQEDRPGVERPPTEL
The assay can be described thus: biochemical. On the set-up: In vitro cyclooxygenase (COX-1 and COX-2) enzyme inhibition assay, percent inhibition. The conditions noted are these: read-out: % inhibition. Here is the method:
(see S1 File for experimental details). To evaluate the health-beneficial activity of the sea lamprey compounds, we included all isolates of sea lamprey extract for the evaluation of in vitro antiinflammatory and antioxidant activities. […] (S1 File). […] Antiinflammatory activities of arginine, tyrosine, tryptophan, asparagine and inosine were assayed at 50 μg/mL concentration.

The target in assay [2] is T2, COX-2 (cyclooxygenase enzyme-2) (Homo sapiens, UniProt P35354).
T2 construct: gene PTGS2
T2 sequence (P35354 18-604): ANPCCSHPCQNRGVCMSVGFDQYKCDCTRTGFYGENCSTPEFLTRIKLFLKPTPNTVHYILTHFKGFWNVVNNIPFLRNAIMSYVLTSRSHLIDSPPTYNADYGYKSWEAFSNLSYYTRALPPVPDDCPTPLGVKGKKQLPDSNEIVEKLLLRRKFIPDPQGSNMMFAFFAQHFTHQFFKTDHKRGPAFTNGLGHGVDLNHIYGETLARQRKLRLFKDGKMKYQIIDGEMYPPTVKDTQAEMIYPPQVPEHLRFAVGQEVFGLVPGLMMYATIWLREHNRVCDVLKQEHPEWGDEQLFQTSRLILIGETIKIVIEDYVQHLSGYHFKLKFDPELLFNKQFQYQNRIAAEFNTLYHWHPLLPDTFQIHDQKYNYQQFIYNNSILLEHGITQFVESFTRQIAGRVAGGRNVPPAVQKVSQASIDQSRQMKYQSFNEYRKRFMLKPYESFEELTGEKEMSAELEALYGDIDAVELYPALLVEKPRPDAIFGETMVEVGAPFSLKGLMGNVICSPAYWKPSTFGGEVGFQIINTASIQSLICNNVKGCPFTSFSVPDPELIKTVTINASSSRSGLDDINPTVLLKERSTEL
The assay can be described thus: biochemical. On the set-up: In vitro cyclooxygenase (COX-1 and COX-2) enzyme inhibition assay, percent inhibition. Conditions: read-out: % inhibition.

Details of assay [3]: Fe2+-induced liposome lipid peroxidation; per cent inhibition measured as loss of fluorescent probe signal. Conditions: large unilamellar vesicles; LPO (lipid peroxidation of large unilamellar liposomes, Fe2+-initiated); 25 ug/mL; inhibitor. Here is the method:
Pure compounds and positive controls were assayed for LPO inhibitory activities according to published procedures from our laboratory (see S1 File for experimental details). The antioxidant assay, the lipid peroxidation inhibitory (LPO) assay, used in this study measures free radical scavenging capability of pure compounds and extracts. In this assay, peroxidation of the lipid was initiated by the addition of Fe^2+ resulting in the generation of radicals, which cause the peroxidation of LUV and in turn the fluorescent probes embedded in it. The loss of fluorescent intensity in the assay indicates the oxidative damage to the lipid component of the LUV [11–15, 21] (S1 File). At 25 μg/mL concentration, cholesteryl palmitate, cholesteryl oleate, cholesteryl eicosapentaenoate and cholesteryl arachidonate inhibited LPO by 38, 60, 72 and 82%, respectively (Table 2) (Fig S in S1 File). The most abundant steroidal compound in sea lamprey was cholesterol and it lacked LPO inhibitory activity. Antioxidant activity profiles of the cholesterol esters were like its antiinflammatory profiles. That is, an increase in chain length and unsaturation increased the LPO activity. Majority of the lipophilic fraction of the sea lamprey extract consisted of glycerides and free fatty acids.

The term inhibition denotes the percentage by which the read-out fell short of the control. For `O=C(O)C(O)Cc1ccccc1` (centres unmarked) [3-Phenyllactic acid], the inhibition at 25 µg/mL in assay [1] is 4.42 ± 0.3%; in assay [2], 11.5 ± 1.6%.

As to `Nc1[nH]cnc2ncnc1-2` [Adenine], the inhibition at 25 µg/mL in assay [1] was determined as 11.7 ± 1.8%; in assay [2], 10 ± 1.4%. On the same counts, the results for `Nc1ncnc2c1ncn2[C@@H]1O[C@H](CO)[C@@H](O)[C@H]1O` [Adenosine] are 16.6 ± 1.1% and 14.7 ± 0.8%. On the same counts, the results for `N=C(N)NCCC[C@H](N)C(=O)O` [Arginine] are 29.7 ± 1.3% and 11.9 ± 1.9%. As to `NC(=O)C[C@H](N)C(=O)O` [Asparagine], the inhibition at 25 µg/mL in assay [1] amounted to 26.8 ± 2.3%; in assay [2], 17.3 ± 0.9%.

Take `N[C@@H](CC(=O)O)C(=O)O` [Aspartic acid]: the inhibition at 25 µg/mL turned out to be 11.8 ± 0.6% in assay [1] and 4.23 ± 0.6% in assay [2]. Take `CC(C)CCC[C@@H](C)[C@H]1CC[C@H]2[C@@H]3CC=C4C[C@@H](O)CC[C@]4(C)[C@H]3CC[C@]12C` [Cholesterol]: the inhibition at 25 µg/mL in assay [1] worked out at 2.92 ± 1.4%; in assay [2], 4.94 ± 2.4%. For `CCCCCCCC/C=C\CCCCCCCC(=O)O[C@H]1CC[C@@]2(C)C(=CC[C@H]3[C@@H]4CC[C@H]([C@H](C)CCCC(C)C)[C@@]4(C)CC[C@@H]32)C1` [Cholesteryl oleate^#], the inhibition at 25 µg/mL in assay [1] is 45.9 ± 0.5%; in assay [2], 31.1 ± 2.8%. Regarding `CCCCCCCCCCCCCCCC(=O)O[C@H]1CC[C@@]2(C)C(=CC[C@H]3[C@@H]4CC[C@H]([C@H](C)CCCC(C)C)[C@@]4(C)CC[C@@H]32)C1` [Cholesteryl palmitate^#], the inhibition at 25 µg/mL in assay [1] stood at 37.7 ± 2.4%; in assay [2], 17.7 ± 2.9%.

In the case of `CN(CC(=O)O)C(=N)N` [Creatine], the values for the inhibition at 25 µg/mL in assay [1] and in assay [2] were 13.3 ± 2.7% and 9.65 ± 1.3%, respectively. On the same counts, the results for `N[C@@H](CS)C(=O)O` [Cysteine] are 12.9 ± 3.5% and 9.65 ± 1.3%. Consider `N[C@@H](CCC(=O)O)C(=O)O` [Glutamic acid], for which the inhibition at 25 µg/mL in assay [1] amounted to 32.2 ± 1.9%; in assay [2] it was 13.8 ± 2.4%. On the same counts, the results for `NCC(=O)O` [Glycine] are 12.9 ± 1.4% and 7.01 ± 0.9%. On the same counts, the results for `O=c1[nH]cnc2nc[nH]c12` [Hypoxanthine] are 10.9 ± 1.4% and 5.82 ± 0.4%.

For `O=c1[nH]cnc2c1ncn2[C@@H]1O[C@H](CO)[C@@H](O)[C@H]1O` [Inosine], the inhibition at 25 µg/mL was determined as 35.8 ± 0.5% in assay [1] and 26.1 ± 0.9% in assay [2].

Turning to `CC[C@H](C)[C@H](N)C(=O)O` [Isoleucine], the inhibition at 25 µg/mL in assay [1] was found to be 23.3 ± 0.6%; in assay [2], 9.92 ± 0.5%. For `CC(C)C[C@H](N)C(=O)O` [Leucine], the results for the inhibition at 25 µg/mL in assay [1] and in assay [2] were 18.2 ± 1.3% and 4.89 ± 3.9%, respectively.

As for `CSCC[C@H](N)C(=O)O` [Methionine], the inhibition at 25 µg/mL in assay [1] was determined as 15.2 ± 1.5%; in assay [2], 4.36 ± 0.4%. For `N[C@@H](Cc1ccccc1)C(=O)O` [Phenylalanine], the inhibition at 25 µg/mL in assay [1] turned out to be 15.6 ± 1.7%; in assay [2], 11.5 ± 1.3%.

Consider `O=C(O)[C@@H]1CCCN1` [Proline], for which the inhibition at 25 µg/mL worked out at 21.6 ± 2.4% in assay [1] and 7.14 ± 1.1% in assay [2]. Take `NCCCCN` [Putrescine]: the inhibition at 25 µg/mL in assay [1] amounted to 16.9 ± 0.2%; in assay [2] it was 10.3 ± 1.4%.

With `CC(=O)C(=O)O` [Pyruvic acid], the inhibition at 25 µg/mL in assay [1] is 9.48 ± 2.9%; in assay [2] it was 7.8 ± 0.8%. For `N[C@@H](CO)C(=O)O` [Serine], the results for the inhibition at 25 µg/mL in assay [1] and in assay [2] were 6.25 ± 2.4% and 2.91 ± 0.3%, respectively. For the compound `NCCCNCCCCNCCCN` [Spermine], the inhibition at 25 µg/mL was determined as 17.5 ± 1.9% in assay [1] and 3.03 ± 0.5% in assay [2]. On the same counts, the results for `C[C@@H](O)[C@H](N)C(=O)O` [Threonine] are 19.4 ± 1.4% and 5.82 ± 2.9%. As to `N[C@@H](Cc1c[nH]c2ccccc12)C(=O)O` [Tryptophan], the inhibition at 25 µg/mL in assay [1] was determined as 37.6 ± 0.8%; in assay [2] it was 19.6 ± 1.8%.

`N[C@@H](Cc1ccc(O)cc1)C(=O)O` [Tyrosine]: the values for the inhibition at 25 µg/mL in assay [1] and in assay [2] were 37.2 ± 1.1% and 21.8 ± 2.4%, respectively. With `CC(C)[C@H](N)C(=O)O` [Valine], the inhibition at 25 µg/mL in assay [1] stood at 21.6 ± 0.9%; in assay [2], 8.33 ± 1.3%. Take `O=c1[nH]c(=O)c2nc[nH]c2[nH]1` [Xanthine]: the inhibition at 25 µg/mL was determined as 12.7 ± 3.8% in assay [1] and 4.37 ± 0.6% in assay [2]. On to `CC(=O)Oc1ccccc1C(=O)O` [compound 1, Aspirin], for which the inhibition at 108 µg/mL in assay [2] is 29.8 ± 0.9%. By % inhibition is commonly meant how much of the control response was suppressed. As to `CCCCCCCCCCCCCCCC(=O)O[C@H]1CC[C@@]2(C)C(=CC[C@H]3[C@@H]4CC[C@H]([C@H](C)CCCC(C)C)[C@@]4(C)CC[C@@H]32)C1` [compound 8, Cholesteryl palmitate^#], the “% inhibition” value in assay [3] worked out at 38.0 ± 1.4%. The same measure, in the same setting: to `CCCCCCCC/C=C\CCCCCCCC(=O)O[C@H]1CC[C@@]2(C)C(=CC[C@H]3[C@@H]4CC[C@H]([C@H](C)CCCC(C)C)[C@@]4(C)CC[C@@H]32)C1` [compound 9, Cholesteryl oleate^#] belongs 59.5 ± 0.7%. Same read-out and setting: to `N=C(N)NCCC[C@H](N)C(=O)O` [compound 17, Arginine] belongs 22.0 ± 1.4%. Same read-out and setting: the figure for `CC(C)[C@H](N)C(=O)O` [compound 18, Valine] is 18.5 ± 0.7%; for `CC(C)C[C@H](N)C(=O)O` [compound 19, Leucine] it is 19.5 ± 0.7%; for `N[C@@H](Cc1ccc(O)cc1)C(=O)O` [compound 20, Tyrosine] it is 55.0 ± 1.4%. For the compound `CC[C@H](C)[C@H](N)C(=O)O` [compound 21, Isoleucine], the “% inhibition” value in assay [3] is on record as 17.5 ± 0.7%.

As to `N[C@@H](Cc1ccccc1)C(=O)O` [compound 22, Phenylalanine], the “% inhibition” value in assay [3] is recorded as 44.0 ± 1.4%. For the compound `N[C@@H](CCC(=O)O)C(=O)O` [compound 23, Glutamic acid], in assay [3], the “% inhibition” value is recorded as 46.0 ± 1.4%. As for `N[C@@H](Cc1c[nH]c2ccccc12)C(=O)O` [compound 25, Tryptophan], in assay [3], the “% inhibition” value was determined as 57.5 ± 0.7%.

Consider `C[C@@H](O)[C@H](N)C(=O)O` [compound 26, Threonine], for which the “% inhibition” value in assay [3] is 45.0 ± 1.4%.

In the case of `NC(=O)C[C@H](N)C(=O)O` [compound 27, Asparagine], in assay [3], the “% inhibition” value is 28.0 ± 1.4%. The same measure, in the same setting: to `NCC(=O)O` [compound 29, Glycine] belongs 16.5 ± 0.7%. Turning to `CCC(=O)C(=O)O` [α-Ketobutyric acid], the inhibition at 25 µg/mL was 5.24 ± 0.3% in assay [1] and 9.65 ± 0.4% in assay [2]. For `CC(C)C(=O)C(=O)O` [α-Ketoisovaleric acid], the inhibition at 25 µg/mL amounted to 17.1 ± 2.1% in assay [1] and 10.5 ± 1.8% in assay [2]. For `CCCC(=O)C(=O)O` [α-Ketovaleric acid], the figures for the inhibition at 25 µg/mL in assay [1] and in assay [2] were 4.13 ± 0.6% and 4.37 ± 0.5%, respectively. On the same counts, the results for `CC(O)CC(=O)O` (stereo not drawn) [β-Hydroxybutyric acid] are 19.7 ± 1.5% and 12.3 ± 1.6%.
